Tested on: HepG2 cells
Experiment: Cellular cholesterol in HepG2 cells (cholesterol test kit)
Type: cell-based, human
Details: HepG2, 1 μM lovastatin, 6-hr culture
Description: 2) Cell Culture and Treatment • (1) Cell Source: HepG2 ATCC • (2) Condition of Culture • Medium: MEM (Minimum essential medium)+10% FBS • Incubation: 37° C., 5% CO2 • Passage and Collection: 0.05% trypsin+0.02% EDTA • (3) Cell Treatment:
Cells were cultured in petri dishes of φ×10 cm (falcon) and grown to the desired proliferation, then detached and transferred to a 6-well plate (falcon). The cells were allowed to adhere and proliferate to the desired density (about 60%-70% confluence), and then treated and grouped as indicated in the table below.
In order to minimize the interference from the cytokines and lipids in serum without sacrificing the growth, the medium was replaced with MEM+2% FBS during treatment.
For every batch of cells, each treatment was repeated in 6 replicates. The cells were treated at different time points and collected at the same time.
The cholesterol test kit from Shanghai JieMen Biotechnology Joint-Corporate was used in accordance to the manufacturer's instruction.

## CC[C@H](C)C(=O)O[C@H]1C[C@@H](C)C=C2C=C[C@H](C)[C@H](CC[C@@H]3C[C@@H](O)CC(=O)O3)[C@H]21 [Positive Control, lovastatin]
  Cellular cholesterol: 34.23 ± 2.38 μg/mg protein
